pEC50, pIC50: −log10 of the molar value.
Assays:
[1] = target: human HSV DNA polymerase UL30 (Human herpesvirus 1 (strain 17) (HHV-1) (Human herpes simplex virus 1), UniProt P04293); assay: HSV polymerase biochemical assay (molecular beacon-based)
In short: (§1)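 Full-length wild-type N-terminal MBP-fusion polymerases from sf9 cells were used at 100 pM (CMV) or 625 pM (HSV) in Tris pH 7.5, 10 mM MgCl2, and preincubated with inhibitor for 30 min at RT. Reactions with 1.25 uM each dNTP, 200 nM primer and 100 nM molecular beacon ran 60 min (CMV) or 20 min (HSV) at RT. Fluorescence was read at 480/535 nm and IC50 derived.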

[2] = system: EBV (SNU-719 gastric carcinoma cell line latently infected with EBV); assay: EBV qPCR assay (cellular herpesvirus replication); format: cell-based; details: human gammaherpesvirus 4; SNU-719 cells, TPA/NaB reactivation, qPCR after 72 hrs; n>3, value (+/- spread)
Procedure: For all viral assays, 10 mM DMSO stock compound solutions were serially diluted in DMSO at 3.16 fold dilutions in 96-well clear round bottom plates. Compounds were then diluted in assay media at 1:20 and subsequently 10 μL of these dilutions were added to cells for final compound concentrations ranging either from 0.0159 μM to 50 μM in 0.5% DMSO/assay media, or from 0.00318 to 10 μM in 0.5% DMSO/assay media.
EBV qPCR assay: The assay uses the SNU-719 gastric carcinoma cell line which is latently infected with EBV. Upon reactivation with chemical reagents, EBV DNA copy number was measured by qPCR. Viral replication in the presence or absence of compounds was measured according to the following procedure: SNU-719 cells were plated at 2×10^4 cells/well in 96-well clear bottom plates, black in 80 μL/well of assay media: 2% FBS in RPMI 1640 (ATCC cat # 30-2001). […]
qPCR reactions were carried out in a total reaction volume of 20 μL, using the QuantiFast® Multiplex PCR kit (Qiagen cat #204656). Eighteen μL of qPCR master mix (10 μL of 2× QuantiFast® Multiplex PCR Master Mix, 1 μL of 20× Primer/Probe Mix specific to housekeeping gene, 1 μL of 20× Primer/Probe Mix specific to viral gene, 6 μL of H2O) was distributed into each well of a 384 well plate. […]
Relative quantification was calculated with the ΔΔCT Method, and then converted into percent inhibitions. […]

[3] = target: human CMV DNA polymerase UL54 (Human cytomegalovirus (strain AD169) (HHV-5) (Human herpesvirus 5), UniProt P08546); assay: CMV polymerase biochemical assay (molecular beacon-based)
In short: as §1

N#Cc1ccc(CNC(=O)c2ccc3n(c2=O)CCN(CC2(S(=O)(=O)C4CC4)CC2)C3=O)cc1 [Example 1, N-(4-cyanobenzyl)-2-((1-(cyclopropylsulfonyl)cyclopropyl)methyl)-1,6-dioxo-2,3,4,6-tetrahydro-1H-pyrido[1,2-a]pyrazine-7-carboxamide]
pIC50 [1]: 7.56
pEC50 [2]: 7.92
pIC50 [3]: 9.10
